# Measurements as given in patent publication US20210145764A1, “COMPOSITIONS OF CANNABIDIOL (CBD), AND/OR POLYPHENOLS, AND METHODS FOR THE PREVENTION AND/OR TREATMENT OF SKIN, MUSCLE, NERVE AND INFLAMMATORY DISORDERS, AND BIOLOGICAL FACTORS AND FUNCTIONS IN MAMMALS” (BRIGHAM YOUNG UNIVERSITY, priority 2019, published 2021).
# Experiments:
# [1] = tested on: dermal layer (only) of the human skin cultures; experiment: MTT assay viability, dermal layer (only); format: cell-based
# From the text: Testing CBD and equol at various concentration to determine tissue/cell viability as indicated on the y- and x-axis and figure labels for subsequent human skin gene analysis. Triton X-100 treatment (cytotoxic control).
# [2] = single topical dose, human skin; cited from earlier work
# [3] = 12 weeks; Equol alone at 0.3%; cited from earlier work
# [4] = cited from earlier work
# [5] = tested on: full epidermal/dermal thickness human skin cultures; experiment: Histology (hematoxylin/eosin) of human skin cultures; format: cell-based; conditions: 0.3% CBD; 0.5% equol; combination; 40× magnification
# Procedure: FIG. 14 depicts photomicrographs (40× magnification) of full epidermal/dermal thickness human skin cultures. […] Standard bar=50 microns.
# In human skin gene expression analysis full epidermal/dermal thickness human skin cultures were used.
# The skin cultures were treated with: (a) transcutol vehicle; (b) 0.3% CBD; and (c) 0.5% equol and 0.3% CDB plus 0.5% equol.
# human skin biomarkers = conditions: cited from earlier work
# [6] = tested on: full thickness epidermal/dermal human skin cultures; experiment: MTT assay cell viability, full thickness skin cultures; format: cell-based
# From the text: Testing CBD and equol at various concentration to determine tissue/cell viability as indicated on the y- and x-axis and figure labels for subsequent human skin gene analysis. Triton X-100 treatment (cytotoxic control). Note: The MTT assay is a colorimetric assay, which has been validated for measuring cell metabolic activity. It is based on the ability of nicotinamide adenine dinucleotide phosphate (NADPH)-dependent cellular oxidoreductase enzymes to reduce the tetrazolium dye MTT to its insoluble formazan, which has a purple color. The absorbance of this colored solution can be quantified by measuring at a certain wavelength (usually between 500 and 600 nm) by a spectrophotometer. The MTT method is one of the most widely used methods to analyze cell proliferation and viability in human skin cells (Triglia et al., 1991).
# [7] = target: T1, Estrogen Related Receptor gamma (γ) (Homo sapiens, UniProt P62508); conditions: cited from earlier work
# T1 sequence (P62508 1-458): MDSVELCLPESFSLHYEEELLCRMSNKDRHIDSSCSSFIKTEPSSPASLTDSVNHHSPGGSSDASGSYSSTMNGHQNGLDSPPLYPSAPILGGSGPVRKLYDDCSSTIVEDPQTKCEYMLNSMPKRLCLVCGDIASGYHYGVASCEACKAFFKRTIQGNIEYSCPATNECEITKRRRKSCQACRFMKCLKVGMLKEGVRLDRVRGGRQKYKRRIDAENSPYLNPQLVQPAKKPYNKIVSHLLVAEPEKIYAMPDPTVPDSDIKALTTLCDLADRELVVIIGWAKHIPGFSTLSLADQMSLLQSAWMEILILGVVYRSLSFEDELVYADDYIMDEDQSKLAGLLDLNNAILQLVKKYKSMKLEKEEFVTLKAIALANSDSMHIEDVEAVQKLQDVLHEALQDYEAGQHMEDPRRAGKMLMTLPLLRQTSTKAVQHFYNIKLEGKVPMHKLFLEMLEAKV
# [8] = target: Estrogen Receptor Beta (β) (Homo sapiens, UniProt Q92731); conditions: cited from earlier work; for Ki: read-out: Binds Estrogen Receptor Beta (β), Ki
# Sequence of Estrogen Receptor Beta (β) (Q92731 whole entry, species assumed): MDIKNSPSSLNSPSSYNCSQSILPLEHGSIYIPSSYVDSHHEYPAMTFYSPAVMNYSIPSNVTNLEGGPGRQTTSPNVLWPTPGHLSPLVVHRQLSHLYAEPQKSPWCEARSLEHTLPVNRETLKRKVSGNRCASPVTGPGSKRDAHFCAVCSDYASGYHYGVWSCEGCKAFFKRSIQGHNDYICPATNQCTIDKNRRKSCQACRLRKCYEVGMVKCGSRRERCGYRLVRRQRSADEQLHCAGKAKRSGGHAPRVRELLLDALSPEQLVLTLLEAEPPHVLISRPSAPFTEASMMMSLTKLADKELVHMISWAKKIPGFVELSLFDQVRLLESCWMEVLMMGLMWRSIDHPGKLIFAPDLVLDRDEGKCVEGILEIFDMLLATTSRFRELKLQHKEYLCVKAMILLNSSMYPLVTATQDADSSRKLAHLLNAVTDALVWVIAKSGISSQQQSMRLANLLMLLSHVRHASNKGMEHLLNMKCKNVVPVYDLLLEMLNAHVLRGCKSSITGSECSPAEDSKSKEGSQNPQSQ
# [9] = cited from earlier work; remark: listed apart in the source
# Elastin = conditions: cited from earlier work
# Elastase = conditions: cited from earlier work
# Collagen = conditions: cited from earlier work
# Growth Factors = conditions: cited from earlier work
# Nrf2 = target: T2, Nrf2 (Homo sapiens, UniProt Q16236); conditions: cited from earlier work
# T2 sequence (Q16236 1-605): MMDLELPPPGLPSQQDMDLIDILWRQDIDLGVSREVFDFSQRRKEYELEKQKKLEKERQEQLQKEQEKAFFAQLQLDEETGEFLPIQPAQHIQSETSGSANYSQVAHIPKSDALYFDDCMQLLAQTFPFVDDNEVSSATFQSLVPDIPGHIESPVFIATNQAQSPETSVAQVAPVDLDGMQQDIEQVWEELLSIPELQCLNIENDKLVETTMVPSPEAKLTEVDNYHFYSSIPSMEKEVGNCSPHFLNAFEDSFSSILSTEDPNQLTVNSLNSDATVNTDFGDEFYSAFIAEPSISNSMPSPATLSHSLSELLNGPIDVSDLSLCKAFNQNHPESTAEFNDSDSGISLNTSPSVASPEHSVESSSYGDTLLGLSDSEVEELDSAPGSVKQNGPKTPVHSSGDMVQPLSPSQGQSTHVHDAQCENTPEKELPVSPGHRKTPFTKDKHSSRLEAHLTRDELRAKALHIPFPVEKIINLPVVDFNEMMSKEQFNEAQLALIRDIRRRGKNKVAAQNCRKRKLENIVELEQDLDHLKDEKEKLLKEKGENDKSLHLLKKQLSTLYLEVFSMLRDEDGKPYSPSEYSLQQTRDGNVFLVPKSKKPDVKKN
# MMPs = conditions: cited from earlier work
# TIMP1 = conditions: cited from earlier work
# [10] = target: T3, 5α-Reductase Enzyme (type 1 in skin) (Homo sapiens, UniProt P18405); conditions: cited from earlier work
# T3 sequence (P18405 1-259): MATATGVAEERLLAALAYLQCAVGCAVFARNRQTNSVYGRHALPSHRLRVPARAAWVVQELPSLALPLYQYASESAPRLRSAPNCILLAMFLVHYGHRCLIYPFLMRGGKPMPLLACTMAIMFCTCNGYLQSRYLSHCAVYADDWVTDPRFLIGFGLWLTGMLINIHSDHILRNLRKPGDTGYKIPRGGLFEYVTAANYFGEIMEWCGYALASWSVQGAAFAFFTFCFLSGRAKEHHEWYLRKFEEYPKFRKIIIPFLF
# AP-1 = conditions: same concentrations; cited from earlier work
# Inflammatory Molecules = conditions: cited from earlier work
# NFkappB = conditions: cited from earlier work
# [11] = target: Estrogen Receptor Alpha (α) (Homo sapiens, UniProt P03372); conditions: cited from earlier work; for Ki: read-out: Binds Estrogen Receptor Alpha (α), Ki
# Sequence of Estrogen Receptor Alpha (α) (P03372 whole entry): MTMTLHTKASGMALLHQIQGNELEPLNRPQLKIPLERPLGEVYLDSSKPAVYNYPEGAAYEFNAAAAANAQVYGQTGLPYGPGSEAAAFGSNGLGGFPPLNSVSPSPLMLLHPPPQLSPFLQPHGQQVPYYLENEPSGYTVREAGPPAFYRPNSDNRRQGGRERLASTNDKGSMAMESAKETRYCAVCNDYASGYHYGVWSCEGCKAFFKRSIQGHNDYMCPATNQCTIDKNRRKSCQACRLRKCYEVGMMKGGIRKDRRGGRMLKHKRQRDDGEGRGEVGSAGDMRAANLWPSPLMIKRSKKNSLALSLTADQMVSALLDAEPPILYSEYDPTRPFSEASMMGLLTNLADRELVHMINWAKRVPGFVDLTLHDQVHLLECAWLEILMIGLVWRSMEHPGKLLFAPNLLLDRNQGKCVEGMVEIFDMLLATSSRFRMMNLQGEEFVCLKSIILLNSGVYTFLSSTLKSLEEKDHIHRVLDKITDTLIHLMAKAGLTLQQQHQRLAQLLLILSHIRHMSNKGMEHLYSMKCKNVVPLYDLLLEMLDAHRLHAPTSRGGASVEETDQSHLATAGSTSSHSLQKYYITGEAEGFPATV
# [12] = drug delivery studies; cited from earlier work
# [13] = cited from earlier work; remark: listed apart in the source
# [14] = in vivo; cited from earlier work
smiles,measurement,setting,value
"Oc1ccc([C@H]2COc3cc(O)ccc3C2)cc1 (racemic) [Equol, equol]","relative percent cell viability, dermal layer only (MTT)",[1]; human,around 100%
same,"skin penetration profile, peak time",[2],around 8 hours
same,sustained release after the initial application,[2],up to 28 hours
same,"Even Skin Tone, Self-Assessment Questionnaire efficacy",[3],70%
same,"Frown Lines/Wrinkles, Self-Assessment Questionnaire efficacy",[3],72%
same,"Hydration, Self-Assessment Questionnaire efficacy",[3],71%
same,"Pore Size, Self-Assessment Questionnaire efficacy",[3],51%
same,"Radiance/Brightness, Self-Assessment Questionnaire efficacy",[3],73%
same,"Skin Firmness, Self-Assessment Questionnaire efficacy",[3],77%
same,"Smoothness, Self-Assessment Questionnaire efficacy",[3],62%
same,"Spots/Discoloration, Self-Assessment Questionnaire efficacy",[3],55%
same,circulates in the free or unbound form in plasma,[4],approximately 50%
same,epidermal and dermal components and epidermal/dermal borders (histology),[5],intact and healthy
same,number of human skin biomarkers/genes significantly altered,human skin biomarkers,39
same,"relative percent cell viability, full thickness cultures (MTT)",[6]; human,around 100%
same,transcriptional activity of ERR γ,[7],enhanced
"Oc1ccc(C2COc3cc(O)ccc3C2)cc1 (racemic) [Racemic Equol, equol]",IC50,"[8]; read-out: Binds Estrogen Receptor Beta (β), IC50",200 nM
same,Oral Metabolism in Humans (pharmacokinetics compared to each other),[9],Similar
same,Stimulates Elastin,Elastin,Yes
same,Inhibits Elastase,Elastase,Yes
same,Stimulates Collagen,Collagen,Yes
same,Stimulates Growth Factors,Growth Factors,"Yes, to moderate"
same,Binds Nrf2/activates other antioxidants,Nrf2,Yes
same,Inhibits MMPs,MMPs,"Yes, to moderate"
same,Stimulates TIMPI,TIMP1,Yes
same,Inhibits 5α-Reductase Enzyme (type 1 in skin),[10],Yes
same,TPA-induced activation of AP-1,AP-1,dose-dependently attenuated
same,Inhibits Inflammatory Molecules,Inflammatory Molecules,"Yes, high inhibition"
same,Inhibits NFkappB,NFkappB,"Yes, high inhibition"
same,Binds/Activates Estrogen Related Receptor gamma (γ),[7],Yes
same,IC50,"[11]; read-out: Binds Estrogen Receptor Alpha (α), IC50",1500 nM
"C=C(C)[C@@H]1CCC(C)=C[C@H]1c1c(O)cc(CCCCC)cc1O [CBD, cannabidiol]","relative percent cell viability, dermal layer only (MTT)",[1]; FIG. 16,around 100%
same,epidermal and dermal components and epidermal/dermal borders (histology),[5],intact and healthy
same,"relative percent cell viability, full thickness cultures (MTT)",[6]; FIG. 15,around 100%
"Oc1ccc([C@@H]2COc3cc(O)ccc3C2)cc1 [R-Equol, R-equol]",affinity for ERβ,[8],weak affinity
same,Ki,[8],15.4 nM
same,Oral Metabolism in Humans (pharmacokinetics compared to each other),[9],Similar
same,Stimulates Elastin,Elastin,Yes
same,Stimulates Collagen,Collagen,Yes
same,Stimulates Growth Factors,Growth Factors,"Yes, to high levels"
same,"more stable isomer, R-equol vs. S-equol",[12],more stable isomer
same,Stimulates TIMPI,TIMP1,"No, or at very low"
same,Inhibits 5α-Reductase Enzyme (type 1 in skin),[10],Yes
same,Inhibits Inflammatory Molecules,Inflammatory Molecules,"Yes, high inhibition"
same,affinity for ER alpha,[11],weak affinity
same,Ki,[11],27.4 nM
"Oc1ccc([C@H]2COc3cc(O)ccc3C2)cc1 [S-Equol, S-equol]",binding to estrogen receptor beta relative to 17β-estradiol,[8]; as well as 17β-estradiol,approximately ⅕
same,Ki,[8],6.4 nM
same,Oral Metabolism in Humans (pharmacokinetics compared to each other),[9],Similar
same,Stimulates Elastin,Elastin,No
same,Stimulates Collagen,Collagen,Yes
same,Stimulates Growth Factors,Growth Factors,"Yes, to low levels"
same,Inhibits MMPs,MMPs,"Yes, to low levels of"
same,Stimulates TIMPI,TIMP1,Yes
same,Inhibits 5α-Reductase Enzyme (type 1 in skin),[10],No
same,Inhibits Inflammatory Molecules,Inflammatory Molecules,"Yes, low inhibition"
same,affinity for ER alpha,[11],low affinity
same,Ki,[11],15.4 nM
"CCCCCc1cc(O)c2c(c1)OC(C)(C)[C@@H]1CCC(C)=C[C@@H]21 [THC, tetrahydrocannabinol]",solubility in most organic solvents,"[13]; organic solvents, particularly lipids and alcohols",good solubility
same,solubility in water,[13]; water,low solubility
"CC1=C(/C=C/C(C)=C/C=C/C(C)=C/C=C/C=C(C)/C=C/C=C(C)/C=C/C2=C(C)C(=O)[C@@H](O)CC2(C)C)C(C)(C)C[C@H](O)C1=O [astaxanthin, reference compound]",number of human skin biomarkers/genes significantly altered,human skin biomarkers,6
"O=c1c(-c2ccc(O)cc2)coc2cc(O)ccc12 [daidzein, reference compound]",intestinal absorption levels,[14],30-40%
same,TPA-induced activation of AP-1,AP-1,did not exert any effect
same,transcriptional activity of ERR γ,[7],did not have this effect
O=c1c(-c2ccc(O)cc2)coc2cc(O)cc(O)c12 [genistein],intestinal absorption levels,[14],15-20%
